According to patent US9464135B2, “Epithelial membrane protein-2 (EMP2) and proliferative vitroretinopathy (PVR)” (THE REGENTS OF THE UNIVERSITY OF CALIFORNIA, priority 2009, dated 2016):

Legend:
Assay type in all cases: cell-based, human
[1] = system: ARPE-19 cells; assay: Collagen gel contraction assay, ARPE-19 cells; settings: 1 hour pretreatment, normalized to vehicle control, read-out: concentration required to achieve 50% inhibition of the gel contraction
Experimental: EMP2 diabody was recombinantly constructed using a phage library to select for reactivity against a human EMP2 peptide. […] Toxicity, adhesion, and migration were assessed respectively through flow cytometry using Annexin V, binding to collagen type 1, and a wound healing assay. Collagen gel contraction was assessed using an in vitro assay.
(§1) Collagen gel contraction assays were performed as previously reported (Morales S A et al., Exp Eye Res, 85(6):790-798 (2007)). Briefly, collagen gels were prepared by combining collagen type I (BD Biosciences) 10×DMEM, and DMEM/F12. The final concentration of the collagen type I mixture was 2.5 mg/mL. The collagen solution (500 μL) was added to each well of a 24-well plate and incubated at 37° C. in 5% CO2 for 1 hour. Cultured ARPE-19 cell with modified EMP2 levels were harvested and resuspended in serum-free DMEM/F12 at a final concentration of 5×10^5/mL. ARPE-19 cells with modified EMP2 levels were seeded onto the collagen gel at a concentration of 2.5×10^5 cells per well and the percentage of contraction was measured at 24 hours. The area of the each gel was obtained by taking a picture of the gel using image capture (Gel Doc 2000; Bio-Rad, Hercules, Calif.) and quantified with NIH Image J (developed by Wayne Rasband, National Institutes of Health, Bethesda, Md.; available at http://rsb.info.nih.gov/ij/index.html). […]

[2] = system: ARPE-19/EMP2 siRNA cells; assay: Collagen gel contraction assay, ARPE-19/EMP2 siRNA cells; settings: 1 hour pretreatment, normalized to vehicle control, read-out: concentration required to achieve 50% inhibition of the gel contraction
Experimental: as §1
(§2) Collagen gels were prepared with collagen type I (BD Biosciences) in DMEM/F12 at a final concentration of 2.5 mg/mL. […] ARPE-19, ARPE-19/EMP2, and ARPE-19/EMP2 siRNA cells were seeded onto the collagen gels at a concentration of 2.5×10^5 cells per well and the percentage of contraction was measured at specific time intervals. […]

[3] = system: ARPE-19/EMP2 cells; assay: Collagen gel contraction assay, ARPE-19/EMP2 cells; settings: overexpressing ARPE-19/EMP2 cells; 1 hour pretreatment; normalized to vehicle control; read-out: concentration required to achieve 50% inhibition of the gel contraction
Experimental: as §1, §2

[4] = system: ARPE-19 cells; assay: Migration assay (scratch wound closure); settings: 50 ng/mL PDGF, 24 hours
Experimental: ARPE-19 and ARPE-19/EMP2 cells were seeded onto a 24-well plate and incubated for 3 days until cells reached confluence. The cells were washed with PBS, serum-free medium was added, and the cells were incubated overnight. A 10 μL pipette tip was used to make a scratch in the monolayer and the medium was removed and replaced with serum-free medium or serum-free medium that contained 50 ng/mL PDGF. Pictures of the wound were taken at various time points, and the percentage closure of the scratch was quantified with NIH Image J software. The area of the scratch was measured immediately after the wound was created. Over time, cells migrated into the cleared area; however, a gap was still visible after 24 hours. The gap size was measured and divided by the original scratch size, and this value was expressed as percentage closure.

[5] = system: ARPE-19 and ARPE-19/EMP2 cells; assay: Collagen production (Sircol Collagen Assay); settings: 10 ng/mL TGF-β, 72 hours, serum-free medium; compared with untreated condition
Experimental: ARPE-19 and ARPE-19/EMP2 cells were seeded onto a six-well plate at a concentration of 7×10^5 cells/mL in serum-free medium in the presence or absence of 10 ng/mL […]. The medium was collected after 72 hours. Secreted collagen was measured (Sircol Collagen Assay; Accurate Chemical & Scientific, Westbury, N.Y.). The collagen assay is a colorimetric procedure. The reaction product was quantified with the microplate reader at a wavelength of 540 nm. Each experiment included at least six replicates, and at least three independent experiments were performed. A Student's t-test (unpaired, one-tail) was used. P<0.05 was judged to be statistically significant.

Compound: CC(C)(C)n1nc(-c2ccc(Cl)cc2)c2c(N)ncnc21 [PP2]
- IC50 [1]: 2500 nM
- IC50 [2]: < 1000 nM
- IC50 [3]: 5000 nM

Compound: PDGF
- wound closure [4]: stimulated wound closure

Compound: TGF-β
- collagen production [5]: increased collagen production
